From patent US20060167109A1, “Methods of reducing rhinovirus contagion and related compositions” (priority 2002, published 2006)

Legend:
Assay in all cases: HRV cytopathic effect assay
Type in all cases: cell-based
Settings in all cases: Human rhinovirus sp.
HRV serotype 11 = test system: HRV serotype 11
Procedure: (§1) For sensitivity testing to pleconaril, the appropriate cells were seeded into 96 well plates at a concentration of 4×10^4/well. After an overnight incubation at 37° C., the medium was removed and the cells were infected with 150 μL of a dilution of virus previously titrated to give ≧85% lysis of the monolayer after 3 days of incubation. The plates were incubated for 1 hour at the appropriate temperature and then overlaid with 50 μL of medium containing serial 2-fold dilutions of pleconaril in 2% DMSO. The final DMSO concentration in the assay was always 0.5%. No virus and no pleconaril controls were included on each plate. All drug concentrations were run in quadruplicate. The plates were then incubated for 3 days at the appropriate temperature followed by processing as described above.

HRV serotype 15 = test system: HRV serotype 15
Procedure: as §1

HRV serotype 16 = test system: HRV serotype 16
Procedure: as §1

HRV serotype 17 = test system: HRV serotype 17
Procedure: as §1

HRV serotype 25 = test system: HRV serotype 25
Procedure: as §1

HRV serotype 27 = test system: HRV serotype 27
Procedure: as §1

HRV serotype 31 = test system: HRV serotype 31
Procedure: as §1

HRV serotype 33 = test system: HRV serotype 33
Procedure: as §1

HRV serotype 35 = test system: HRV serotype 35
Procedure: as §1

HRV serotype 39 = test system: HRV serotype 39
Procedure: as §1

HRV serotype 40 = test system: HRV serotype 40
Procedure: as §1

HRV serotype 41 = test system: HRV serotype 41
Procedure: as §1

HRV serotype 43 = test system: HRV serotype 43
Procedure: as §1

HRV serotype 45 = test system: HRV serotype 45
Procedure: as §1

HRV serotype 49 = test system: HRV serotype 49
Procedure: as §1

HRV serotype 4 = test system: HRV serotype 4
Procedure: as §1

HRV serotype 50 = test system: HRV serotype 50
Procedure: as §1

HRV serotype 51 = test system: HRV serotype 51
Procedure: as §1

HRV serotype 53 = test system: HRV serotype 53
Procedure: as §1

HRV serotype 59 = test system: HRV serotype 59
Procedure: as §1

HRV serotype 5 = test system: HRV serotype 5
Procedure: as §1

HRV serotype 63 = test system: HRV serotype 63
Procedure: as §1

HRV serotype 66 = test system: HRV serotype 66
Procedure: as §1

HRV serotype 69 = test system: HRV serotype 69
Procedure: as §1

HRV serotype 71 = test system: HRV serotype 71
Procedure: as §1

HRV serotype 73 = test system: HRV serotype 73
Procedure: as §1

HRV serotype 74 = test system: HRV serotype 74
Procedure: as §1

HRV serotype 77 = test system: HRV serotype 77
Procedure: as §1

HRV serotype 78 = test system: HRV serotype 78
Procedure: as §1

HRV serotype 79 = test system: HRV serotype 79
Procedure: as §1

HRV serotype 80 = test system: HRV serotype 80
Procedure: as §1

HRV serotype 82 = test system: HRV serotype 82
Procedure: as §1

HRV serotype 85 = test system: HRV serotype 85
Procedure: as §1

HRV serotype 86 = test system: HRV serotype 86
Procedure: as §1

HRV serotype 89 = test system: HRV serotype 89
Procedure: as §1

HRV serotype 8 = test system: HRV serotype 8
Procedure: as §1

HRV serotype 90 = test system: HRV serotype 90
Procedure: as §1

HRV serotype 91 = test system: HRV serotype 91
Procedure: as §1

HRV serotype 92 = test system: HRV serotype 92
Procedure: as §1

HRV serotype 93 = test system: HRV serotype 93
Procedure: as §1

HRV serotype 94 = test system: HRV serotype 94
Procedure: as §1

HRV serotype 95 = test system: HRV serotype 95
Procedure: as §1

HRV serotype 96 = test system: HRV serotype 96
Procedure: as §1

HRV serotype 99 = test system: HRV serotype 99
Procedure: as §1

HRV serotype 9 = test system: HRV serotype 9
Procedure: as §1

## Cc1cc(CCCOc2c(C)cc(-c3noc(C(F)(F)F)n3)cc2C)on1 [pleconaril, 3-[3,5-dimethyl-4-[3-(3-methyl-5-isoxazolyl)propoxy]phenyl]-5-(trifluoromethyl)-1,2,4-oxadiazole]
HRV serotype 11
  IC50: 0.15 ± 0.04 µM
HRV serotype 15
  IC50: 0.59 ± 0.29 µM
HRV serotype 16
  IC50: 0.57 ± 0.19 µM
HRV serotype 17
  IC50: 0.23 ± 0.08 µM
HRV serotype 25
  IC50: 0.1 ± 0.01 µM
HRV serotype 27
  IC50: 5.9 ± 1.9 µM
HRV serotype 31
  IC50: 0.13 ± 0.07 µM
HRV serotype 33
  IC50: 0.16 ± 0.03 µM
HRV serotype 35
  IC50: 0.04 ± 0.01 µM
HRV serotype 39
  IC50: 0.01 µM
HRV serotype 40
  IC50: 0.07 ± 0.03 µM
HRV serotype 41
  IC50: 1.75 ± 1.49 µM
HRV serotype 43
  IC50: 0.23 ± 0.11 µM
HRV serotype 45
  IC50: 4.3 ± 1.83 µM
HRV serotype 49
  IC50: 0.17 ± 0.06 µM
HRV serotype 4
  IC50: > 12.5 µM
HRV serotype 50; HRV50, Table 2, mean of at least two independent determinations
  IC50: 0.35 ± 0.07 µM
HRV serotype 50; serotype 50
  IC50: 0.35 ± 0.07 µM
HRV serotype 51
  IC50: 0.05 ± 0.03 µM
HRV serotype 53
  IC50: 0.28 ± 0.06 µM
HRV serotype 59
  IC50: 0.78 ± 0.34 µM
HRV serotype 5
  IC50: > 12.5 µM
HRV serotype 63
  IC50: 0.16 ± 0.08 µM
HRV serotype 66
  IC50: 0.11 ± 0.07 µM
HRV serotype 69
  IC50: 6.77 ± 3.14 µM
HRV serotype 71
  IC50: 0.02 ± 0.01 µM
HRV serotype 73
  IC50: 0.21 ± 0.09 µM
HRV serotype 74
  IC50: 0.03 µM
HRV serotype 77
  IC50: 0.55 ± 0.29 µM
HRV serotype 78
  IC50: 0.08 ± 0.04 µM
HRV serotype 79
  IC50: 0.04 ± 0.06 µM
HRV serotype 80
  IC50: 0.17 ± 0.03 µM
HRV serotype 82
  IC50: 0.22 ± 0.19 µM
HRV serotype 85
  IC50: 0.05 ± 0.02 µM
HRV serotype 86
  IC50: 0.13 ± 0.1 µM
HRV serotype 89; HRV89, Table 2, mean of at least two independent determinations
  IC50: 0.05 ± 0.01 µM
HRV serotype 89; serotype 89
  IC50: 0.05 ± 0.01 µM
HRV serotype 8
  IC50: 3.42 ± 2.7 µM
HRV serotype 90
  IC50: 0.19 ± 0.06 µM
HRV serotype 91
  IC50: 0.73 ± 0.39 µM
HRV serotype 92
  IC50: 0.02 ± 0.01 µM
HRV serotype 93
  IC50: > 12.5 µM
HRV serotype 94
  IC50: 1.1 ± 0.44 µM
HRV serotype 95
  IC50: 0.81 ± 0.51 µM
HRV serotype 96
  IC50: 0.09 ± 0.05 µM
HRV serotype 99
  IC50: > 12.5 µM
HRV serotype 9
  IC50: 0.22 ± 0.08 µM
